According to the CheMixHub viscosity set:

Experiment: xn = mol fraction of the nth substance listed
Conditions: 101.33 kPa

CC(N)CN (stereo not given) + OCCCCO
viscosity [mPa·s]
Conditions | 293.15 K | 298.15 K | 303.15 K | 308.15 K | 313.15 K | 318.15 K
x2 = 0.0415 | 2.17 | 1.92 | 1.66 | 1.48 | 1.3 | 1.21
x2 = 0.0837 | 2.83 | 2.5 | 2.1 | 1.86 | 1.63 | 1.54
x2 = 0.1267 | 3.76 | 3.28 | 2.72 | 2.37 | 2.07 | 1.91
x2 = 0.1705 | 5.08 | 4.37 | 3.59 | 3.08 | 2.65 | 2.44
x2 = 0.2152 | 6.86 | 5.84 | 4.71 | 4.02 | 3.41 | 3.11
x2 = 0.2606 | 8.9 | 7.88 | 6.27 | 5.26 | 4.42 | –
x2 = 0.3069 | 13.32 | 10.91 | 8.54 | 7.05 | 5.85 | –
x2 = 0.3541 | 18.39 | 14.82 | 11.39 | 9.32 | 7.62 | –
x2 = 0.4022 | 25.44 | 20.09 | 15.23 | 12.31 | 9.87 | –
x2 = 0.4513 | 34.76 | 27.12 | 20.33 | 16.17 | 13.1 | –
x2 = 0.5013 | 47.13 | 36.26 | 26.83 | 21.01 | 16.42 | –
x2 = 0.5523 | 61.72 | 47.01 | 34.44 | 26.7 | 20.75 | –
x2 = 0.6043 | 75.89 | 57.65 | 42 | 32.37 | 25.02 | –
x2 = 0.6574 | 90.68 | 69.04 | 50.16 | 38.64 | 29.82 | –
x2 = 0.7116 | 99.83 | 76.3 | 55.75 | 42.89 | 33.12 | –
x2 = 0.7669 | 106 | 81.64 | 60.1 | 46.57 | 36.08 | –
x2 = 0.8233 | 107.2 | 83.62 | 61.98 | 48.39 | 37.8 | –
x2 = 0.881 | 104.3 | 82.14 | 61.43 | 48.46 | 38.15 | –
x2 = 0.9399 | 98.79 | 78.35 | 59.29 | 47.22 | 37.43 | –
